Results on two molecules are retold here after patent publication US20250235510A1, “COMBINATION THERAPY USING GLUCOSE-DEPENDENT INSULINOTROPIC POLYPEPTIDE RECEPTOR ANTAGONIST COMPOUNDS AND GLP-1 RECEPTOR AGONIST PEPTIDES” (Pfizer Inc., priority 2024, published 2025).

The structures appear in SMILES notation.

The assay has as its target T1, human Glucose-dependent Insulinotropic Polypeptide Receptor (hGIPR) (Homo sapiens, UniProt P48546).
T1 sequence (P48546 22-466): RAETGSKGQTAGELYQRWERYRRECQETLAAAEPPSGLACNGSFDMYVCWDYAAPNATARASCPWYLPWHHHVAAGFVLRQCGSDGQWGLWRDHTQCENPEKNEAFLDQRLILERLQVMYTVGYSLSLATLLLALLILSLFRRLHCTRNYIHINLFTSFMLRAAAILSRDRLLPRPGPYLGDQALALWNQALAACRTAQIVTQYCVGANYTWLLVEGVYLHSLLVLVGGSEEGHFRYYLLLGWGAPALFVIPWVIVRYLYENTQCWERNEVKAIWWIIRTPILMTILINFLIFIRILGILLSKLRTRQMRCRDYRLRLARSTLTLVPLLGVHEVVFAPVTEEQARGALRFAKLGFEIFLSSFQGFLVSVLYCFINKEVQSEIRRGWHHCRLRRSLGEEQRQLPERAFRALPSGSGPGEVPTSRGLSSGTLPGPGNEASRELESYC
The experiment in a line: Functional in vitro GIPR antagonist potency assay (intracellular cAMP, HTRF) in CHO-K1 cells stably expressing hGIPR. Type of assay: cell-based. To be noted: 2 h compound incubation, then hGIP at estimated EC80 for 30 min. As to the method:
The functional in vitro antagonist potency for test compounds was determined by monitoring intracellular cyclic adenosine monophosphate (cAMP) levels in Chinese hamster ovary (CHO)-K1 cells stably expressing the human Glucose-dependent Insulinotropic Polypeptide Receptor (hGIPR). Following agonist activation, hGIPR associates with the G-protein complex causing the Gas subunit to exchange bound guanosine diphosphate (GDP) for guanosine triphosphate (GTP), followed by dissociation of the Gas-GTP complex. The activated Gas subunit can couple to downstream effectors to regulate the levels of second messengers or cAMP within the cell. Thereby, determination of intracellular cAMP levels allows for pharmacological characterization. Intracellular cAMP levels are quantitated using a homogenous assay utilizing the Homogeneous Time Resolved Fluorescence (HTRF) technology from Perkin Elmer. […] The two entities compete for binding to a monoclonal anti-cAMP antibody labeled with cryptate. […]
([…]: 5% CO2), with a micro-clime lid. […] ([…]: 5% CO2), after which intracellular cAMP levels were quantified and samples measured as described previously. […]
Data were analyzed using the ratio of fluorescence intensity at 620 and 665 nm for each well, extrapolated from the cAMP standard curve to express data as nanomolar (nM) cAMP for each well. […]

As usually defined, the IC50 is the point on the concentration scale where inhibition reaches its midpoint. As for `CC(C)c1ccc(NC(=O)N2CCC[C@H]2C(=O)Nc2ccc3cc(C(=O)O)ccc3c2)cc1` [Compound 41A, 6-[(1-{[4-(propan-2-yl)phenyl]carbamoyl}prolyl)amino] naphthalene-2-carboxylic acid], the IC50 was 160 nM. As for `CC(C)c1ccc(NC(=O)N2CCC[C@H]2C(=O)Nc2ccc(-c3ccc(C(=O)O)cc3)cc2)cc1` [Compound 44A, 4′-[(1-{[4-(propan-2-yl)phenyl]carbamoyl}prolyl)amino][1,1′-biphenyl]-4-carboxylic acid], the IC50 was 6.8 nM.
